Assay results reported in patent publication US4816441A, “Peptides and compositions” (priority 1985, dated 1989).

Tests used:
Raji = test: NK-like activity of PBL incubated with SpA peptides or intact SpA, 51Cr release, Raji targets; type: cell-based, human; conditions: E/T 10:1
Protocol: (§1) K-cell activity is here defined as the increase in cell mediated cytotoxicity of normal peripheral blood leukocytes (PBL) against tumor derived target cells. PBL were isolated by the Boyum method (Scand.J.Clin.Lab.Invest. 22 (1968) 77) by centrifugation of heparinized blood from healthy donors on Ficoll-Hypaque® (Pharmacia, Uppsala, Sweden). In many experiments adherent cells were removed by incubating PBL in sterile glass bottles at 37° C. for 1 to 2 hours.
(§2) The cell lines were kept in culture in RPMI 1640 (Gibco, Paisley, Scotland, Cat. No. 041-1875) to which was added fetal calf serum (10% v/v) (FCS) as well as penicillin (100 IU/ml) and streptomycin (100 μg/ml) at 37° C. and carbon dioxide in air.
(§3) The target cells were labelled with ^51 Cr (New England Nuclear, Dreieich, West Germany).
(§4) The medium used was RPMI 1640 to which was added 10% of FCS, penicillin (100 IU/ml) and streptomycin (100 μg/ml). After incubation, the cell density was adjusted and the cells were distributed in round-bottom microtiter plates (NUNC, Roskilde, Denmark). ^51 Cr-labeled K562 target cells were added to a desired ratio between effector (E) and target (T) cells (E/T 10:1). After a further 4 hours of incubation at 37° C. with 6% CO2 in air, the plates were placed on a Titertek® microtiter plate shaker (Flow Laboratories Ltd., Ayrshire, Scotland). The microtiter plates were centrifuged and known volumes of the supernatant removed by suction and counted ^51 Cr-sample). As maximum value (^51 Cr-max), use was made of the supernatant from K562 incubated with saponin. The spontaneous release of ^51 Cr (^51 Cr-spont) was measured by incubating ^51 Cr-K562 without effector cells.
(§5) Kill %: […]
(§6) The method employed was practically the same as above for Daudi and Raji targets. The only substantial difference was that no preincubation was performed prior to addition of the ^51 Cr-labelled target cells, and the complete incubation of effector and target cells was done in 24 hours. The Kill % was calculated as described above.

Daudi [1] = test: Long-term test, LAK-like activity, Daudi targets; type: cell-based, human; conditions: 20 μg/ml; E/T 10:1
Protocol: 6×10^6 monocyte-depleted mononuclear cells were incubated in 6 ml RPMI 1640 +5% FCS, penicillin (100 IU/ml) and streptomycin (100 μg/ml) in vertically suspended Falcon flasks (Falcon Plastics, Oxnard, CA., USA, Cat. No. 3013). As in the short-term test, 1.5, 6, 25 or 100 μg peptide per ml, respectively, were added. […] Incubation for 72 h at 37° C., 7% CO2. The cells were counted, density adjusted and the cells incubated together with ^51 Cr-labelled Raji and Daudi target cells. E/T ratios were: 10:1 and 20:1. In the Daudi test the incubation lasted 16 hours, in the Raji test it was 18 hours (round-bottom microtiter plates, as above).

Daudi [2] = test: NK-like activity of PBL incubated with SpA peptides or intact SpA, 51Cr release, Daudi targets; type: cell-based, human; conditions: E/T 10:1
Protocol: as §1, §2, §3, §4, §5, §6

[3] = Guinea pig model: anaphylactoid-like reaction after intravenous administration; type: in vivo, guinea pigs of Dunkin-Hartley strain; conditions: anaesthesized artificially ventilated guinea pigs
Protocol: Guinea pigs of Dunkin-Hartley strain (ca. 500 g) were anaesthesized with sodium pentobarbital and were surgically prepared with a catheter in the jugular vein for drug infusion. The blood pressure was registered from a carotid artery. The animals were artificially ventilated by a Harvard small animal respirator at a cycle of 38 insufflations per min. and a volume of 1 ml per 100 g animal.

complement system = test: Activation of complement: generation of C5a des-Arg in normal human serum (RIA); type: biochemical; conditions: 60 minutes incubation, aliquots at 0, 30, 60 minutes, FIG. 4
Protocol: In order to investigate the influence of the compounds of the invention on the complement system a test was performed in which the generation of the complement split product C5a was used as a measure of the activation of complement.
Aliquots were taken after 0, 30, and 60 minutes and the generated C5a des-Arg was quantitated by a commercial RIA-kit (Upjohn Company, Kalamazoo, MI).

SpA: protein A from Staphylococcus aureus, purified, from Pharmacia, Uppsala, Sweden
% kill Raji (Raji; 5 μg/ml (12.5 pmol/ml)): 31%
% kill Raji (Raji; 5 μg/ml (125 pmol/ml)): 46%
% kill Raji (Raji; 10 μg/ml (250 pmol/ml)): 46%
Stimulation index, long-term assay (LAK-like activity), Daudi (Daudi [1]): 1.19
% kill Daudi (Daudi [2]; 5 μg/ml (12.5 pmol/ml)): 66%
% kill Daudi (Daudi [2]; 5 μg/ml (125 pmol/ml)): 71%
% kill Daudi (Daudi [2]; 10 μg/ml (250 pmol/ml)): 77%
Anaphylactoid-like reaction (bronchoconstriction, hypertension, later hypotension) [3]: produced an anaphylactoid-like reaction
Activation of complement (C5a des-Arg generation) (complement system): considerable C5a generating capacity
